Data from patent US11512053B2, “Arginine methyltransferase inhibitors and uses thereof” (priority 2013, dated 2022).
Where a name gives a salt, the structure may show the parent alone. Read-outs that look alike come from different tables or passages of the source.

Columns and labels:
[1] = biological target: full-length human PRMT1 isoform 1 (GST-tagged) (Homo sapiens, UniProt Q99873); experiment: PRMT1 Biochemical Assay (3H-SAM Flashplate, peptide substrate)
Procedure, shortened: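 GST-tagged full-length PRMT1 from baculovirus-infected cells, preincubated 30 min at room temperature with compound in 20 mM Bicine pH 7.6, TCEP, BSG, Tween 20. Reaction started with 3H-SAM plus biotinylated peptide, stopped with 300 uM unlabelled SAM. Streptavidin Flashplate capture and scintillation counting; % inhibition curve-fitted for IC50.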

[2] = biological target: full-length human PRMT8 isoform 1 (Homo sapiens, UniProt Q9NR22); experiment: PRMT8 Biochemical Assay (3H-SAM Flashplate, peptide substrate); details: read-out: Biochemical IC50 PRMT8
Chain of full-length human PRMT8 isoform 1 (Q9NR22 whole entry, canonical isoform): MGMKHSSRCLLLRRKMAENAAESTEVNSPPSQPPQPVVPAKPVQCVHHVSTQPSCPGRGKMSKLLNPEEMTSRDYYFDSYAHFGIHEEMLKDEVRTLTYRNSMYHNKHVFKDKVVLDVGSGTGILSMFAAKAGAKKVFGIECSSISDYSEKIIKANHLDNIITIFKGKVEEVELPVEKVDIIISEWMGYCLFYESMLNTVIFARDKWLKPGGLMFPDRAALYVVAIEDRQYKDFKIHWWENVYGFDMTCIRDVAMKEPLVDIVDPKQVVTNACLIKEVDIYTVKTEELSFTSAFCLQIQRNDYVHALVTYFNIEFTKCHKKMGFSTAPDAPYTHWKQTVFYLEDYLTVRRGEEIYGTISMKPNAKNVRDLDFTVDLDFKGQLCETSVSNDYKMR
Procedure, shortened: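 Full-length human PRMT8 (1.5 nM, E. coli-expressed, GST removed) preincubated 30 min at room temperature with compound, then reacted with 50 nM 3H-SAM plus 550 nM cold SAM and 150 nM biotinylated H4 31-45 peptide in 20 mM Bicine pH 7.6, 1 mM TCEP, 0.005% BSG, 0.002% Tween 20, 2% DMSO. Quenched with 400 uM cold SAM; labelled peptide captured on streptavidin Flashplate, % inhibition versus 1 mM SAH and DMSO controls fitted to 4- or 3-parameter curve.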

[3] = single experiment or average of multiple experiments

Chain of full-length human PRMT1 isoform 1 (GST-tagged) (Q99873 with tags, fused parts or gaps): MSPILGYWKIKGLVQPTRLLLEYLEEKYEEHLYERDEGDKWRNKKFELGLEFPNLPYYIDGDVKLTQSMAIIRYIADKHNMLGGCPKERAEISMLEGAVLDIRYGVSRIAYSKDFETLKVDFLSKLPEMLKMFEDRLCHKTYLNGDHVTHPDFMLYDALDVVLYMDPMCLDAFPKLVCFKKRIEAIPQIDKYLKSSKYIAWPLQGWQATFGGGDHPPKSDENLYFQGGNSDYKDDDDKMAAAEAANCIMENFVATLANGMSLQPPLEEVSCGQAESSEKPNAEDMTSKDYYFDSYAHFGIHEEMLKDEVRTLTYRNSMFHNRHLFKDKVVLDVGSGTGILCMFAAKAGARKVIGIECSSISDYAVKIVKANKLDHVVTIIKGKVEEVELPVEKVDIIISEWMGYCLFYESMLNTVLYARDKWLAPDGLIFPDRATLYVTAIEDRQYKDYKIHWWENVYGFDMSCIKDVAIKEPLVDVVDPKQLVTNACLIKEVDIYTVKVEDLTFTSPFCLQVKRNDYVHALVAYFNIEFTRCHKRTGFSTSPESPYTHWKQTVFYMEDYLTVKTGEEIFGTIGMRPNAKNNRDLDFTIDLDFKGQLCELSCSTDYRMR

SMILES	IC50 [1] [nM]	IC50 [1, 3] [nM]	IC50 [2] [nM]	IC50 [2, 3] [nM]
CCOC[C@H]1CC(c2n[nH]cc2CN(C)CCNC)C[C@H](COCC)C1 (some centres unmarked) [Compound 188]	101 to 1000	275	1010 to 3000	1540
CNCCN(C)Cc1c[nH]nc1[C@H]1CC[C@@H](O)CC1 [Compound 217, 4-[4-([methyl[2-(methylamino)ethyl]amino]methyl)-1H-pyrazol-3-yl]cyclohexan-1-ol trifluoroacetate]	< 100	30.2	< 100	59.5
CNCCN(C)Cc1c[nH]nc1[C@H]1CC[C@H](O)CC1 [Compound 227, 4-[4-([methyl[2-(methylamino)ethyl]amino]methyl)-1H-pyrazol-3-yl]cyclohexan-1-ol trifluoroacetate]	< 100	16.8	< 100	35.8
CNCCN(C)Cc1c[nH]nc1[C@H]1CC[C@@H](N(CC(C)C)C(=O)CCOc2ccccc2)CC1 [Compound 231]	< 100	6.49	< 100	9.32
CNCCN(C)Cc1c[nH]nc1[C@H]1CC[C@H](N(CCOc2ccccc2)C(=O)CC(C)C)CC1 [Compound 223]	< 100	6.65	< 100	8.65
CNCCN(C)Cc1c[nH]nc1[C@H]1CC[C@H](C(=O)NCCOc2ccccc2)CC1 [Compound 211]	< 100	8.28	< 100	10
CNCCN(C)Cc1c[nH]nc1C1CCC(C)(C)[C@H](C(=O)NCC(C)C)C1 (some centres unmarked) [Compound 262]	< 100	33.7	< 100	72.4
CCN(C(=O)CCOc1ccccc1)[C@H]1CC[C@@H](c2n[nH]cc2CN(C)CCNC)CC1 [Compound 224]	< 100	9.27	< 100	10.2
CNCCN(C)Cc1c[nH]nc1[C@H]1CC[C@@H](N(CCC(C)C)C(=O)CCCOC)CC1 [Compound 237]	< 100	42.2	< 100	83.3
CNCCN(C)Cc1c[nH]nc1[C@H]1CC[C@H](N(CCOC)C(=O)CCC(C)C)CC1 [Compound 254]	< 100	17.3	< 100	44
CNCCN(C)Cc1c[nH]nc1[C@H]1CC[C@H](N(CCCOC)C(=O)CCOc2ccccc2)CC1 [Compound 247]	< 100	11.1	< 100	16.4
CNCCN(C)Cc1c[nH]nc1[C@H]1CC[C@H](N(CC(C)C)C(=O)CC2CCOCC2)CC1 [Compound 193]	< 100	28.4	< 100	68.8
CNCCN(C)Cc1c[nH]nc1C1CCC(C)(C)[C@H](C(=O)OC)C1 (some centres unmarked) [Compound 256]	< 100	23.7	< 100	44
CNCCN(C)Cc1c[nH]nc1[C@H]1CC[C@]2(CCCO2)OC1 [Compound 198]	3010 to 10000	≥ 10000	3010 to 10000	≥ 10000
CNCCN(C)Cc1n[nH]cc1[C@H]1CC[C@]2(CC1)CC(C)(C)CO2 [Compound 201]	< 100		< 100	
CCN(C(=O)CC1CCOCC1)[C@H]1CC[C@H](c2n[nH]cc2CN(C)CCNC)CC1 [Compound 195]	< 100	14.4	< 100	35.6
CNCCN(C)Cc1n[nH]cc1[C@H]1CC[C@@]2(CC1)CC(C)(C)CO2 [Compound 200, Methyl[2-(methylamino)ethyl]([4-[(5S,8S)-3,3-dimethyl-1-oxaspiro[4.5]decan-8-yl]-1H-pyrazol-3-yl]methyl)amine trifluoroacetic acid salt]	< 100		< 100	

The next lines start with the values.

IC50 [1] [nM]	IC50 [1, 3] [nM]	IC50 [2] [nM]	IC50 [2, 3] [nM]	SMILES
< 100	6.55	< 100	13.2	CCN(C(=O)CC(C)C)[C@H]1CC[C@H](c2n[nH]cc2CN(C)CCNC)CC1 [Compound 239]
< 100	29.6	< 100	80.1	CNCCN(C)Cc1c[nH]nc1[C@H]1CC[C@H](N(CCC(C)C)C(=O)CCCOC)CC1 [Compound 238]
< 100	30.9	< 100	51.5	CNCCN(C)Cc1c[nH]nc1[C@H]1CC[C@H](N(CCOC)C(=O)CC(C)C)CC1 [Compound 252]
< 100	78	101 to 1000	181	CNCCN(C)Cc1c[nH]nc1C1CCC(C)(C)[C@H](C(=O)NCCOC)C1 (some centres unmarked) [Compound 264]
< 100	5.57	< 100	8.28	CNCCN(C)Cc1c[nH]nc1[C@H]1CC[C@@H](C(=O)NCCOc2ccccc2)CC1 [Compound 212]
< 100	18.4	< 100	51.6	CNCCN(C)Cc1c[nH]nc1[C@H]1CC[C@@H](C(=O)NCCC(C)C)CC1 [Compound 204]
< 100	14.5	< 100	35.3	CNCCN(C)Cc1c[nH]nc1C1CCC(=O)CC1 [Compound 194]
< 100	53.9	101 to 1000	165	CNCCN(C)Cc1c[nH]nc1[C@H]1CC[C@H](C(=O)N(CCCOC)CCC(C)C)CC1 [Compound 213]
< 100	6.1	< 100	10.9	CCN(C(=O)CC(C)C)[C@H]1CC[C@@H](c2n[nH]cc2CN(C)CCNC)CC1 [Compound 240]
< 100	7.62	< 100	13.9	CCN(C(=O)CCOc1ccccc1)[C@H]1CC[C@H](c2n[nH]cc2CN(C)CCNC)CC1 [Compound 225]
< 100	29.8	< 100	31	CNCCN(C)Cc1cnn(C)c1[C@H]1CC[C@]2(CC1)CC(C)(C)CO2 [Compound 257]
< 100	19.5	< 100	28.9	CNCCN(C)Cc1cn(C)nc1[C@H]1CC[C@]2(CC1)CC(C)(C)CO2 [Compound 206, Methyl([1-methyl-3-[(5R,8S)-3,3-dimethyl-1-oxaspiro[4.5]decan-8-yl]-1H-pyrazol-4-yl]methyl)[2-(methylamino)ethyl]amine hydrochloride]
< 100	32.4	< 100	70.8	CNCCN(C)Cc1c[nH]nc1[C@H]1CC[C@H](N(CCCOC)C(=O)CCC(C)C)CC1 [Compound 243]
< 100	13.1	< 100	20.7	CCN(C(=O)CCC(C)C)[C@H]1CC[C@@H](c2n[nH]cc2CN(C)CCNC)CC1 [Compound 251]
< 100	43	< 100	90	CNCCN(C)Cc1c[nH]nc1[C@H]1CC[C@@H](N(CCOc2ccccc2)C(=O)CC(C)C)CC1 [Compound 222]
< 100	9.11	< 100	21	CNCCN(C)Cc1c[nH]nc1[C@H]1CC[C@H](N(CC(C)C)C(=O)CCOc2ccccc2)CC1 [Compound 232]
< 100	20.7	< 100	42.7	CNCCN(C)Cc1c[nH]nc1[C@H]1CC[C@@H](N(CC(C)C)C(=O)CCOC)CC1 [Compound 233]
< 100	41.7	< 100	67	CNCCN(C)Cc1c[nH]nc1[C@H]1CC[C@@H](N(CCOc2ccccc2)C(=O)CCOC)CC1 [Compound 218]
< 100	10.2	< 100	24.5	CNCCN(C)Cc1c[nH]nc1C1CCC(C)(C)[C@@H](C(=O)OC)C1 (some centres unmarked) [Compound 255]
